From ChEMBL document CHEMBL3885861, “Open TG-GATES”

Species: Rattus norvegicus
Experiment: Open TG-GATES - Regimen: Daily Repeat
Format: toxicity, organism-based, Sprague-Dawley
Set-up: regimen Daily Repeat, gender Male, age 6 weeks
Details: in vivo, po, 1000 mg/kg, route gavage, dose level High; for APTT / Bas / Eos / Fbg / Hb / Ht / Lym / MCH / MCHC / MCV / Mono / Neu / PT / Plat / RBC / Ret / WBC: tissue Blood; for KIDNEY_L / KIDNEY_R / KIDNEY_TOTAL: tissue Kidney; for LIVER: tissue Liver; for A/G / ALP / ALT / AST / BUN / CRE / Ca / Cl / DBIL / GLC / IP / K / LDH / Na / PL / RALB / TBIL / TC / TG / TP / gamma-GTP: tissue Plasma

CN(C)[C@@H]1C(O)=C(C(N)=O)C(=O)[C@@]2(O)C(O)=C3C(=O)c4c(O)cccc4[C@@](C)(O)[C@H]3C[C@@H]12 [TETRACYCLINE]
TERMINAL_BW (72 h, time 3 day): 196.1 g | APTT (72 h, time 3 day): 16.3 s | Bas (72 h, time 3 day): 0% | Eos (72 h, time 3 day): 1.2% | Fbg (72 h, time 3 day): 220.4 mg/dL | Hb (72 h, time 3 day): 13.2 g/dL | Ht (72 h, time 3 day): 39.6% | Lym (72 h, time 3 day): 87.6% | MCH (72 h, time 3 day): 21.2 pg | MCHC (72 h, time 3 day): 33.2% | MCV (72 h, time 3 day): 63.8 fL | Mono (72 h, time 3 day): 4.6% | Neu (72 h, time 3 day): 6.6% | PT (72 h, time 3 day): 12.3 s | Plat (72 h, time 3 day): 111.2 x10_4/uL | RBC (72 h, time 3 day): 621.8 x10_4/ul | Ret (72 h, time 3 day): 5.2% | WBC (72 h, time 3 day): 98.6 x10_2/uL | KIDNEY_L (72 h, time 3 day): 0.9 g | KIDNEY_R (72 h, time 3 day): 0.9 g | KIDNEY_TOTAL (72 h, time 3 day): 1.8 g | LIVER (72 h, time 3 day): 8.4 g | A/G (72 h, time 3 day): 2.2 | ALP (72 h, time 3 day): 1151 IU/L | ALT (72 h, time 3 day): 37.8 IU/L | AST (72 h, time 3 day): 72.2 IU/L | BUN (72 h, time 3 day): 17.2 mg/dL | CRE (72 h, time 3 day): 0.5 mg/dL | Ca (72 h, time 3 day): 10.8 mg/dL | Cl (72 h, time 3 day): 105.8 meq/L | DBIL (72 h, time 3 day): 0.006 mg/dL | GLC (72 h, time 3 day): 181 mg/dL | IP (72 h, time 3 day): 9 mg/dL | K (72 h, time 3 day): 4.6 meq/L | LDH (72 h, time 3 day): 144.4 IU/L | Na (72 h, time 3 day): 140.8 meq/L | PL (72 h, time 3 day): 143.2 mg/dL | RALB (72 h, time 3 day): 3.8 g/dL | TBIL (72 h, time 3 day): 0.3 mg/dL | TC (72 h, time 3 day): 85.8 mg/dL | TG (72 h, time 3 day): 40.4 mg/dL | TP (72 h, time 3 day): 5.5 g/dL | gamma-GTP (72 h, time 3 day): 1.8 IU/L | TERMINAL_BW ([…], time 7 day): 225.1 g | TERMINAL_BW ([…], time 14 day): 289.3 g | TERMINAL_BW ([…], time 28 day): 356 g | APTT ([…], time 7 day): 16 s | Bas ([…], time 7 day): 0% | Eos ([…], time 7 day): 1.2% | Fbg ([…], time 7 day): 220.8 mg/dL | Hb ([…], time 7 day): 13.3 g/dL | Ht ([…], time 7 day): 39.5% | Lym ([…], time 7 day): 86.6% | MCH ([…], time 7 day): 20.8 pg | MCHC ([…], time 7 day): 33.6% | MCV ([…], time 7 day): 61.7 fL | Mono ([…], time 7 day): 5.8% | Neu ([…], time 7 day): 6.8% | PT ([…], time 7 day): 12.3 s | Plat ([…], time 7 day): 115 x10_4/uL | RBC ([…], time 7 day): 639.8 x10_4/ul | Ret ([…], time 7 day): 6.4% | WBC ([…], time 7 day): 124.1 x10_2/uL | APTT ([…], time 14 day): 16.2 s | Bas ([…], time 14 day): 0% | Eos ([…], time 14 day): 1% | Fbg ([…], time 14 day): 225.4 mg/dL | Hb ([…], time 14 day): 13.5 g/dL | Ht ([…], time 14 day): 40.9% | Lym ([…], time 14 day): 91.2% | MCH ([…], time 14 day): 20.6 pg | MCHC ([…], time 14 day): 33% | MCV ([…], time 14 day): 62.5 fL | Mono ([…], time 14 day): 2.6% | Neu ([…], time 14 day): 5.4% | PT ([…], time 14 day): 11.9 s | Plat ([…], time 14 day): 109.6 x10_4/uL | RBC ([…], time 14 day): 656 x10_4/ul | Ret ([…], time 14 day): 6.7% | WBC ([…], time 14 day): 146 x10_2/uL | APTT ([…], time 28 day): 16.6 s | Bas ([…], time 28 day): 0% | Eos ([…], time 28 day): 1% | Fbg ([…], time 28 day): 233.6 mg/dL | Hb ([…], time 28 day): 14.4 g/dL | Ht ([…], time 28 day): 43.2% | Lym ([…], time 28 day): 86.8% | MCH ([…], time 28 day): 19 pg | MCHC ([…], time 28 day): 33.4% | MCV ([…], time 28 day): 56.9 fL | Mono ([…], time 28 day): 3.6% | Neu ([…], time 28 day): 8.6% | PT ([…], time 28 day): 11.8 s | Plat ([…], time 28 day): 95 x10_4/uL | RBC ([…], time 28 day): 761.4 x10_4/ul | Ret ([…], time 28 day): 2.9% | WBC ([…], time 28 day): 154.2 x10_2/uL | KIDNEY_L ([…], time 7 day): 1 g | KIDNEY_R ([…], time 7 day): 1 g | KIDNEY_TOTAL ([…], time 7 day): 1.9 g | KIDNEY_L ([…], time 14 day): 1.1 g | KIDNEY_R ([…], time 14 day): 1.2 g | KIDNEY_TOTAL ([…], time 14 day): 2.3 g | KIDNEY_L ([…], time 28 day): 1.3 g | KIDNEY_R ([…], time 28 day): 1.2 g | KIDNEY_TOTAL ([…], time 28 day): 2.5 g | LIVER ([…], time 7 day): 9.5 g | LIVER ([…], time 14 day): 11.9 g | LIVER ([…], time 28 day): 12.2 g | A/G ([…], time 7 day): 2.1 | ALP ([…], time 7 day): 1114.8 IU/L | ALT ([…], time 7 day): 36.6 IU/L | AST ([…], time 7 day): 72 IU/L | BUN ([…], time 7 day): 17 mg/dL | CRE ([…], time 7 day): 0.5 mg/dL | Ca ([…], time 7 day): 11.1 mg/dL | Cl ([…], time 7 day): 106.2 meq/L | DBIL ([…], time 7 day): 0.008 mg/dL | GLC ([…], time 7 day): 179.6 mg/dL | IP ([…], time 7 day): 9 mg/dL | K ([…], time 7 day): 5.2 meq/L | LDH ([…], time 7 day): 116.4 IU/L | Na ([…], time 7 day): 140.4 meq/L | PL ([…], time 7 day): 139 mg/dL | RALB ([…], time 7 day): 3.8 g/dL | TBIL ([…], time 7 day): 0.2 mg/dL | TC ([…], time 7 day): 74 mg/dL | TG ([…], time 7 day): 56.2 mg/dL | TP ([…], time 7 day): 5.6 g/dL | gamma-GTP ([…], time 7 day): 1.2 IU/L | A/G ([…], time 14 day): 2 | ALP ([…], time 14 day): 1024 IU/L | ALT ([…], time 14 day): 33.8 IU/L | AST ([…], time 14 day): 64.8 IU/L | BUN ([…], time 14 day): 20.2 mg/dL | CRE ([…], time 14 day): 0.6 mg/dL | Ca ([…], time 14 day): 11.3 mg/dL | Cl ([…], time 14 day): 104 meq/L | DBIL ([…], time 14 day): 0.074 mg/dL | GLC ([…], time 14 day): 176 mg/dL | IP ([…], time 14 day): 9.2 mg/dL | K ([…], time 14 day): 4.9 meq/L | LDH ([…], time 14 day): 156.6 IU/L | Na ([…], time 14 day): 143 meq/L | PL ([…], time 14 day): 168.8 mg/dL | RALB ([…], time 14 day): 3.9 g/dL | TBIL ([…], time 14 day): 0.3 mg/dL | TC ([…], time 14 day): 89.2 mg/dL | TG ([…], time 14 day): 84.2 mg/dL | TP ([…], time 14 day): 5.9 g/dL | gamma-GTP ([…], time 14 day): 2 IU/L | A/G ([…], time 28 day): 1.8 | ALP ([…], time 28 day): 773.6 IU/L | ALT ([…], time 28 day): 35.2 IU/L | AST ([…], time 28 day): 71.8 IU/L | BUN ([…], time 28 day): 19.2 mg/dL | CRE ([…], time 28 day): 0.6 mg/dL | Ca ([…], time 28 day): 11.1 mg/dL | Cl ([…], time 28 day): 106 meq/L | DBIL ([…], time 28 day): 0.024 mg/dL | GLC ([…], time 28 day): 168.8 mg/dL | IP ([…], time 28 day): 7.6 mg/dL | K ([…], time 28 day): 4.4 meq/L | LDH ([…], time 28 day): 143.6 IU/L | Na ([…], time 28 day): 142 meq/L | PL ([…], time 28 day): 140.4 mg/dL | RALB ([…], time 28 day): 3.6 g/dL | TBIL ([…], time 28 day): 0.3 mg/dL | TC ([…], time 28 day): 77.6 mg/dL | TG ([…], time 28 day): 73.8 mg/dL | TP ([…], time 28 day): 5.7 g/dL | gamma-GTP ([…], time 28 day): 1.6 IU/L
